What is called IC50 is the concentration needed to halve the response being measured. A word on the EC50: it is the concentration at which the effect is half-maximal. Read a high EC50 as a need for much substance.

The results in this text go back to ChEMBL document CHEMBL4184238, “Synthesis and biological evaluation of a series of novel pyridinecarboxamides as potential multi-receptor antipsychotic drugs” (Bioorg Med Chem Lett, 2018).

Data set [1] concerns the target D(2) dopamine receptor (Homo sapiens, UniProt P14416). Put plainly: Antagonistic activity at human dopamine D2 receptor measured after 60 mins by Lance Ultra cAMP assay. Type of data set: functional. Background: Changes in cAMP serve as a functional read-out for many G protein-coupled receptors.
Data set [2] has as its target T1, 5-hydroxytryptamine receptor 1A (Homo sapiens, UniProt P08908).
T1 sequence (P08908 whole entry): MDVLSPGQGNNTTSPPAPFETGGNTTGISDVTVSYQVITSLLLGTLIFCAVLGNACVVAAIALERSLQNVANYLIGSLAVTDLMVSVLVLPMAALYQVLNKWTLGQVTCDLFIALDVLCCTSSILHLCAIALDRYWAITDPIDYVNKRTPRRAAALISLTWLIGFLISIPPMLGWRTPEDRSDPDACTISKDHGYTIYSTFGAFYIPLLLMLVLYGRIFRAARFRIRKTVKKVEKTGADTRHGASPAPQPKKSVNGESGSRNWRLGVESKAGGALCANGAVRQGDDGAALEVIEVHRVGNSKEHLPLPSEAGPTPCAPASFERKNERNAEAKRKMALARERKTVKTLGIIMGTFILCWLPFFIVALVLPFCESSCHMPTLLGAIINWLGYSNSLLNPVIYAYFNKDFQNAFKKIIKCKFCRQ
Put plainly: Agonistic activity at human 5-HT1A receptor measured after 60 mins by Ultra Lance cAMP assay. Type of data set: functional.

Data set [3] concerns the target 5-hydroxytryptamine receptor 2A (Homo sapiens, UniProt P28223). Briefly: Antagonistic activity at human 5-HT2A receptor assessed as calcium flux after 10 mins by FLIPR assay. Type of data set: functional. In general terms: Calcium flux is commonly read through the fluorescence of an indicator in the cells.
The nature of data set [4]: Stability in human liver microsomes assessed as parent compound remaining level at 2 uM in presence of NADPH incubated for 30 mins by LC-MS/MS method. The class given is ADME, microsome. The note with it: read-out: Stability.
In data set [5] the target is T2, Alpha-1A adrenergic receptor (Homo sapiens, UniProt P35348).
T2 sequence (P35348 whole entry): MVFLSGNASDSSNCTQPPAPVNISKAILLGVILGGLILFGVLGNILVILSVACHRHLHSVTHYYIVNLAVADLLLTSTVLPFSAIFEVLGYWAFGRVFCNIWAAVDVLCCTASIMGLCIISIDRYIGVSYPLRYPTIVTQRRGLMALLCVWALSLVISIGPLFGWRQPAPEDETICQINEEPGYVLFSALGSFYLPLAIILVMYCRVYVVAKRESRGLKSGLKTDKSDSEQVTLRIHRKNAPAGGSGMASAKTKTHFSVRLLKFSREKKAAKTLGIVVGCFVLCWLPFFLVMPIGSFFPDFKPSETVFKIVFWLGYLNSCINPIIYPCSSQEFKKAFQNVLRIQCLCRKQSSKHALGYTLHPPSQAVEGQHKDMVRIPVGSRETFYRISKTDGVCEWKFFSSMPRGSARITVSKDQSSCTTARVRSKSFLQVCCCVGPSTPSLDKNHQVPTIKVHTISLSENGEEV
Briefly: Antagonistic activity at alpha-1A adrenergic receptor (unknown origin) after 10 mins by FLIPR assay. Type of data set: functional.

The target of data set [6] is Histamine H1 receptor (Homo sapiens, UniProt P35367). Briefly: Antagonistic activity at histamine 1 receptor (unknown origin) after 10 mins by FLIPR assay. Type of data set: functional.
Data set [7] deals with T3, 5-hydroxytryptamine receptor 2C (Homo sapiens, UniProt P28335).
T3 sequence (P28335 whole entry): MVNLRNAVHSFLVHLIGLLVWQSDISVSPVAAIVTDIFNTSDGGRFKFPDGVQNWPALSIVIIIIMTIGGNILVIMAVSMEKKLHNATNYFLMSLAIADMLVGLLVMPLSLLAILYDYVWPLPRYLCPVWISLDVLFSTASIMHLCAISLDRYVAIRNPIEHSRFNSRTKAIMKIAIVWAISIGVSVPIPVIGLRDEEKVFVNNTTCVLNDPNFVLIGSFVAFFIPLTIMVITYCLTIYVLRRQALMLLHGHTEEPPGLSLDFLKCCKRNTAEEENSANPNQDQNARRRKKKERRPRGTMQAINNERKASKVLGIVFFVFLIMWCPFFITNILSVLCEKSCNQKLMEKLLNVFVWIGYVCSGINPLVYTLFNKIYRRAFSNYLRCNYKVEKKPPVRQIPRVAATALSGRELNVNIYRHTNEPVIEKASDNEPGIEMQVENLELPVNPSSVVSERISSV
Put plainly: Antagonistic activity at 5-HT2c receptor (unknown origin) after 10 mins by FLIPR assay. The class given is functional.

Data set [8] has as its system Mus musculus. Put plainly: Antipsychotic-like activity in ICR mouse assessed as inhibition of PCP-induced hyperlocomotion at 0.3 to 3 mg/kg, ig followed by animal habituation for 10 mins before 60 mins measurement period. The class given is functional, organism-based.
The subject of data set [9] is Mus musculus. Briefly: Antipsychotic-like activity in ICR mouse assessed as inhibition of PCP-induced hyperlocomotion at 3 mg/kg, ig followed by animal habituation for 10 mins before 60 mins measurement period. Type of data set: functional, organism-based.

The structures appear in SMILES notation. Calls of active or inactive are those of the source. The rule behind the calls is not given here. Where only a bound is given, the exact number is not on record here.

Sequence of D(2) dopamine receptor (P14416 whole entry): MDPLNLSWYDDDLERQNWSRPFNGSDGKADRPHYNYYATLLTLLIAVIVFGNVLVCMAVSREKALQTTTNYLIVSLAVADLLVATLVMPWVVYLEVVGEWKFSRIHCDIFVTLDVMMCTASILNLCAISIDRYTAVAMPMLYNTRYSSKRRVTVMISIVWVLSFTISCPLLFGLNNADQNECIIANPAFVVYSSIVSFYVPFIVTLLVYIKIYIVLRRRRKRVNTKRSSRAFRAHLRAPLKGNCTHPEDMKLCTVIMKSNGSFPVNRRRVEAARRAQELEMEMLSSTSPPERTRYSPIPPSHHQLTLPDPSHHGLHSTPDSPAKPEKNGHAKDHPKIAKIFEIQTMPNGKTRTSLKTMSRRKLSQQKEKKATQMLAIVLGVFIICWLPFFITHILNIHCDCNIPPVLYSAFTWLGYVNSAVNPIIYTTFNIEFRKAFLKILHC
Sequence of 5-hydroxytryptamine receptor 2A (P28223 whole entry): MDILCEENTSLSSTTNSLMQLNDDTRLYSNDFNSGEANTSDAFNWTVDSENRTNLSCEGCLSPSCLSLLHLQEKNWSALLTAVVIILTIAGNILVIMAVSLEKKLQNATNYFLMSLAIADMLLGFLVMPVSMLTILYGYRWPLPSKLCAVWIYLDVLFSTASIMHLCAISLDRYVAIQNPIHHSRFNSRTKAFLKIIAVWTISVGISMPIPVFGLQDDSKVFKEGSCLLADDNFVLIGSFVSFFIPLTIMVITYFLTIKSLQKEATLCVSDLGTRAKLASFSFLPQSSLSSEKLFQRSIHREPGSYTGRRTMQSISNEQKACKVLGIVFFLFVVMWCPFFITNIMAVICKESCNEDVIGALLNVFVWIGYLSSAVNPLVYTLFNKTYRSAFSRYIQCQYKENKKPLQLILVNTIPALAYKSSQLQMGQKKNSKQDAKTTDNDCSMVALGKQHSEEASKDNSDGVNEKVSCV
Sequence of Histamine H1 receptor (P35367 whole entry): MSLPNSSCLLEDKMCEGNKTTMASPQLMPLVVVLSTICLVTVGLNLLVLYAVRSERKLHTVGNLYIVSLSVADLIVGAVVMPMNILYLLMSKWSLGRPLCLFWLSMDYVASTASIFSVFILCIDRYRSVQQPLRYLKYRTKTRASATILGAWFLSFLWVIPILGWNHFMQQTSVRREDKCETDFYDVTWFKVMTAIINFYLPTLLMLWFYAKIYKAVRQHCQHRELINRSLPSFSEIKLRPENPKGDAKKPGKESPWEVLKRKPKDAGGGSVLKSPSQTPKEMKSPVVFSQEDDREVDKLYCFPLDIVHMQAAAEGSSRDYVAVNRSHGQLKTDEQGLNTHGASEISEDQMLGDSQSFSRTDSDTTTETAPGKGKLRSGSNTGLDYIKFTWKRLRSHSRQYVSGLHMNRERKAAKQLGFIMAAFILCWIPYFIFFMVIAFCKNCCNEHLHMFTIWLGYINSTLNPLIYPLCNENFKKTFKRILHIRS

For the molecule `CNC(=O)c1cccc(OCCCCN2CCN(c3ccc4ccsc4c3)CC2)n1`, the IC50 in [1] amounted to 412 nM; in data set [3] it was 1280 nM. For the same molecule, in data set [2], the EC50 was found to be 117 nM.
Take `CNC(=O)c1cccc(OCCCCN2CCN(c3cccc4sccc34)CC2)n1`: the IC50 came to 86.1 nM in data set [1] and 106 nM in data set [3]. Besides, the half-maximal effective concentration (EC50) in data set [2] was 11.3 nM.
The matching figures for `CNC(=O)c1cc(OCCCCN2CCN(c3cccc4sc(F)cc34)CC2)ccn1`: 8 nM, 64.9 nM and 0.7 nM.
Regarding `CCNC(=O)c1cncc(OCCCCN2CCC(c3noc4cc(F)ccc34)CC2)c1`, the IC50 in [1] was determined as 59 nM; in data set [3], 94.2 nM. Also, the EC50 in [2] was above 100000 nM.
On to `CNC(=O)c1cccc(OCCCCN2CCC(c3noc4cc(F)ccc34)CC2)n1`, for which the figures for the IC50 in data set [1] and in data set [3] were 9.3 nM and 134 nM, respectively. Also, the EC50 in data set [2] was above 100000 nM.
Regarding `CNC(=O)c1cc(OCCCCN2CCN(c3cccc(Cl)c3Cl)CC2)ccn1`, the IC50 in data set [1] was 26.5 nM; in data set [3], 476 nM. The molecule further displayed an EC50 in [2] of 0.9 nM.
For `CNC(=O)c1cc(OCCCCN2CCN(c3cccc4sccc34)CC2)ccn1`, the IC50 in data set [1] stood at 24 nM; in data set [3] it was 154 nM; in data set [5] it was 164 nM; in data set [6], 418 nM; in [7], 346 nM. Besides, a half-maximal response in data set [2] (EC50) required 1.2 nM. The remaining at 0.5 h, 2 µM in data set [4] stood at 65%. In addition, the Activity result in data set [8] is “Dose-dependent effect”. For the same molecule, the outcome in [9] was Active.
Consider `O=C(NC1CC1)c1ccnc(OCCCCN2CCC(c3noc4cc(F)ccc34)CC2)c1`, for which the IC50 came to 51.7 nM in data set [1] and 53.9 nM in data set [3]. In [2], this molecule came in with an EC50 above 100000 nM.
The matching figures for `O=C(NC1CC1)c1cc(OCCCCN2CCC(c3noc4cc(F)ccc34)CC2)ccn1`: 53.5 nM, 167 nM and 28.1 nM.
For `CNC(=O)c1cncc(OCCCCN2CCC(c3noc4cc(F)ccc34)CC2)c1`, the values for the IC50 in data set [1] and in [3] were 123 nM and 83.2 nM, respectively. Moreover, the concentration for a half-maximal effect (EC50) in [2] is above 100000 nM.
As to `CNC(=O)c1cccc(OCCCCN2CCC(c3noc4cc(F)ccc34)CC2)c1`, the remaining at 0.5 h, 2 µM in data set [4] was 97%.
Take `CCNC(=O)c1cc(OCCCCN2CCC(c3noc4cc(F)ccc34)CC2)ccn1`: the results for the IC50 in data set [1] and in data set [3] were 37.6 nM and 95.5 nM, respectively. Further, the EC50 in data set [2] was 17.6 nM.
Take `CNC(=O)c1cccc(OCCCCN2CCN(c3nsc4ccccc34)CC2)c1`: the remaining at 0.5 h, 2 µM in [4] was 25%.
Consider `O=C1CCc2ccc(OCCCCN3CCN(c4cccc(Cl)c4Cl)CC3)cc2N1`, for which the result in [9] was Active.
For `CNC(=O)c1ccnc(OCCCCN2CCC(c3noc4cc(F)ccc34)CC2)c1`, the half-inhibitory concentration (IC50) in data set [1] came to 299 nM; in [3], 62.4 nM. The molecule further registered an EC50 in data set [2] above 100000 nM.
On to `CNC(=O)c1cc(OCCCCN2CCN(c3nsc4ccccc34)CC2)ccn1`, for which the IC50 in [1] is 11.4 nM; in data set [3] it was 113 nM; in data set [5], 71 nM; in data set [6] it was 923 nM; in data set [7], 70 nM. For the same molecule, the EC50 in [2] came out at 2.2 nM. For the same molecule, the remaining at 0.5 h, 2 µM in data set [4] was 65%.
In the case of `CNC(=O)c1cccc(OCCCCN2CCN(c3cccc(Cl)c3Cl)CC2)n1`, the IC50 was 51.1 nM in [1] and 910 nM in data set [3]. Also, in data set [2], a half-maximal response (EC50) required 23.6 nM.
Take `O=C(NC1CC1)c1cncc(OCCCCN2CCC(c3noc4cc(F)ccc34)CC2)c1`: the IC50 is 42.5 nM in data set [1] and 89.9 nM in data set [3]. This molecule also had an EC50 in data set [2] above 100000 nM.
Consider `CNC(=O)c1cc(OCCCCN2CCC(c3noc4cc(F)ccc34)CC2)ccn1`, for which the IC50 worked out at 59.8 nM in [1]; 247 nM in data set [3]; 11 nM in data set [5]; 4420 nM in data set [6]; 63 nM in [7]. Also, the concentration for a half-maximal effect (EC50) in data set [2] worked out at 9 nM. For the same molecule, in data set [4], the remaining at 0.5 h, 2 µM was 98%.
For `CCNC(=O)c1ccnc(OCCCCN2CCC(c3noc4cc(F)ccc34)CC2)c1`, the figures for the IC50 in [1] and in data set [3] were 65.5 nM and 67.5 nM, respectively. Moreover, in [2], the EC50 was above 100000 nM.
The matching figures for `O=C(NC1CC1)c1cc(OCCCCN2CCN(c3nsc4ccccc34)CC2)ccn1`: 65.2 nM, 324 nM and 6.2 nM.
On to `NC(=O)c1cc(OCCCCN2CCN(c3nsc4ccccc34)CC2)ccn1`, for which the figures for the IC50 in data set [1] and in data set [3] were 42.6 nM and 523 nM, respectively. The midpoint of the response in [2], the EC50, lay at 16.5 nM.
